Measured values taken from paper PMC8321398, “The discovery of a novel series of compounds with single-dose efficacy against juvenile and adult Schistosoma species” (PLoS Neglected Tropical Diseases, 2021).
In brackets after ≈: the same amount, converted by molar mass. Like-named read-outs stand apart in the source and are kept apart here.

What was measured:
HepG2 cells = test: Cytotoxicity, HepG2 cells with MTT; assay type: cell-based, human; settings: Table 2; hepG2 cell line, 72 h incubation
Method: Activity against mammalian cells was determined using either of two standard assays. The first of these used MRC-5 cells with Alamar blue staining as previously described. The second used HepG2 cells monitored using 3-(4,5-dimethylthiazol-2-yl)-2,5-diphenyltetrazolium bromide (MTT) as previously described.

Juvenile S. mansoni = test: In vitro juvenile (3 week old) S. mansoni worm assay; assay type: cell-based; settings: Schistosoma mansoni; for EC50: Table 2, in vitro, 120 h incubation
From the text: (§1) The Puerto Rican strain of S. mansoni was maintained in Biomphalaria glabrata and CD1 mice. Oncomelania hupensis (hupensis) infected with S. japonicum (Chinese strain) and Bulinus truncatus (truncatus) infected with Egyptian strain S. haematobium were obtained from BEI Resources, NIAID, NIH. Infection of mice for worm recovery was as previously described except that, whereas cercariae of S. mansoni and S. haematobium were obtained by shedding from infected snails under lights, cercariae of S. japonicum were obtained by gently crushing the snails. Furthermore, adult S. haematobium were recovered after 12 weeks following mouse infection.
(§2) In vitro efficacy was carried out as previously described. In brief, worms were recovered from infected mice by portal perfusion 3 weeks (for juveniles) or 6 weeks (for adults) post-infection using warm perfusion medium (Dulbecco’s Modified Eagle’s Medium [DMEM], 2mM L-glutamine, 100 Units/ml penicillin, 100μg/ml streptomycin, 20mM Hepes, 10 Units/ml heparin [Sigma, UK]). Worms were washed free of red blood cells using the perfusion medium, and finally suspended in complete medium (cDMEM: DMEM, 2mM L-glutamine, 100 Units/ml penicillin, 100μg/ml streptomycin, 10% FCS). The juvenile assays were carried out in 96-well plates, each well containing 6–8 worms in 200 μL cDMEM. The adult worm assay was in 24-well plates, each well containing 3 worm pairs in 1mL cDMEM. Both the juvenile and adult worm cultures were kept at 37° C, in an atmosphere of 5% CO2. Drug effects were determined on day 5 following drug treatment by assessing the viability of individual worms as described in [14].

Adult S. mansoni = test: In vitro adult S. mansoni worm assay; assay type: cell-based; settings: Schistosoma mansoni, 120 h incubation
From the text: as §1, §2

[1] = Human dose prediction with the PK Tool; settings: for human single oral dose prediction: PK Tool, predicted plasma conc at 24 h 7 fold above calculated adult worm blood potency
From the text: • We assume that the plasma concentration achieved in mouse sufficient to kill worms is the same as the plasma concentration we need to achieve in humans to see the same effect. A component element is an assumption that the mechanism of S. mansoni worm reduction in mouse and human are the same. • We assume that allometric scaling can be used to estimate human clearance based on mouse clearance. One factor that would make this assumption unsafe is if the clearance mechanisms and rates for our series in mouse and human were different. Fortunately, in vivo clearance correlates well with metabolic stability calculated from in vitro mouse hepatocyte measurements (Fig 7A). In vitro stability estimates in mouse and human hepatocytes are also fairly well correlated (Fig 7B).
Estimates of dose prediction in human were made using the PK Tool. A simple estimate of an effective human dose for LSHTM-3520 can be made by making the assumption that a plasma concentration of 2,000 ng/mL 24 h after oral administration (the same as that achieved in Fig 6B) would give sufficient clinical efficacy. […] To design compounds with a lower predicted human dose we pursued two strategies, one to improve potency by optimisation of the core and substituents, the other to decrease clearance through blocking positions we thought likely to be vulnerable to metabolic enzymes and/or conformational restriction.
Assuming linear kinetics the plasma levels scaled from the low-dose oral PK experiment (2.5 mg/kg) for LSHTM-3520 (8 ng/mL) after 24 h would be 160 ng/mL from […] and 640 ng/mL at […].

[2] = test system: panel of 50 human kinases; test: Kinase panel activity; assay type: biochemical; settings: 1 μM
Method: Kinase panel activity: Activity of compounds at 1 μM was assessed against a panel of 50 kinase enzymes (MKK1, JNK1, p38a MAPK, RSK1, PDK1, PKBa, SGK1, S6K1, PKA, ROCK 2, PRK2, PKCa, PKD1, MSK1, CAMKKb, CAMK1, SmMLCK, CHK2, GSK3b, PLK1, Aurora B, LKB1, AMPK (hum), MARK3, CK1δ, CK2, DYRK1A, NEK6, TBK1, PIM1, SRPK1, EF2K, HIPK2, PAK4, MST2, MLK3, TAK1, IRAK4, RIPK2, TTK, Src, Lck, BTK, JAK3, SYK, EPH-A2, HER4, IGF-1R, TrkA, VEG-FR) carried out by the MRC Protein Phosphorylation and Ubiquitinylation Unit at the University of Dundee, Dundee, DD1 5EH, UK.

[3] = Plasma protein binding in mouse plasma at 10 uM, equilibrium dialysis; assay type: in vitro ADME; settings: for recovery at 6 h, 10 µM: mouse, mouse plasma, pH 7.4
Method: Each experiment was performed in duplicate for the compound being tested. A working solution of compound was prepared from 10 μL of 10 mM solution in DMSO + 190 μL 40:60 MeCN:Water. A Total solution was prepared from 12 μL of working solution + 588 μL plasma (compound conc: 10 μM, DMSO: 0.1%, ACN:0.76%). In an equilibrium dialysis chamber, Total solution (200 μL) was added to the plasma chamber and PBS pH 7.4 (350 μL) was added to the buffer chamber. The chamber was then incubated at 37°C for 6 h with constant shaking at 400 rpm (Thermomixer comfort, Eppendorf). Aliquots were removed from both plasma and buffer chambers and the following test samples prepared: Blank: blank Plasma (20 μL) + blank buffer (60 μL), Buffer: blank plasma (20 μL) + test buffer (60 μL), Plasma: test plasma (20 μL) + blank buffer (60 μL), Total: total sample (20 μL) + blank buffer (60 μL). Ice-cold acetonitrile (160 μL), containing a suitable standard was added to all samples, they were shaken vigorously and centrifuged at 4,000 rpm for 20 min at 15°C. Supernatant (110 μL) from each sample was diluted with water (110 μL) and the sample analysed by LC-MS/MS.
% Free = 100 × (AREA in buffer × dilution factor)/(AREA in Plasma × dilution factor)
% Recovery = 100 ×[(Avg AREA in buffer × dilution factor) + (Avg AREA in Plasma × dilution factor)] / (Avg AREA in Total × dilution factor)

[4] = Table 2, in vitro, read-out: Adult S. mansoni EC50
[5] = Table 3, S. mansoni, read-out: Sm adult EC50

| SMILES | Cytotox TC50 (HepG2 cells) | EC50 (Juvenile S. mansoni) [nM] | EC50 (Adult S. mansoni; [4]) [nM] | EC50 (Adult S. mansoni; [5]) [nM] | human single oral dose prediction [1] [mg/kg] | predicted single human oral dose (simple estimate) ([1]; target 2,000 ng/mL at 24 h, allometric scaling from mouse, exponent 0.75) [mg/kg] | inhibition, panel of 50 human kinases [2] [%] | Mouse plasma protein %binding [3] [%] | recovery at 6 h, 10 µM [3] [%] | IC50 (Juvenile S. mansoni; 10 fold the in vitro value (assay run at 10% of whole blood protein), read-out: calculated whole blood IC50) [µg/mL] |
| --- | --- | --- | --- | --- | --- | --- | --- | --- | --- | --- |
| CC(C)c1nc2cnc(-c3ccc(F)c(C(F)(F)F)c3)cn2c1-c1c(F)cc(O)cc1F [LSHTM-3520] | 7,130 nM | 27 | 46 | 46.2 | 25 | 48 | ≤ 25 | 99.97 | 91.5 |  |
| CC(C)c1nc2cnc(-c3ccc(F)c(C(F)(F)F)c3)cn2c1-c1ccc2[nH]ncc2c1F [LSHTM-3604] | 12,000 nM | 33.2 | 31.5 |  | 6 |  | ≤ 25 | 99.9858 | 94.5 | 0.152 (≈ 0.332 µM) |
| Fc1c(-c2c(C(F)(F)F)nc3cnc(-c4cccc(C(F)(F)C(F)(F)F)c4)cn23)ccc2[nH]ncc12 [LSHTM-3608] | 10,900 nM | 21 | 15.3 | 15.3 | 2.5 |  |  | 99.9195 | 80.8 |  |
| Fc1ccc(-c2cn3c(-c4ccc5[nH]ncc5c4F)c(C(F)(F)F)nc3cn2)cc1C(F)(F)F [LSHTM-3642, 3-(4-fluoro-1H-indazol-5-yl)-6-(4-fluoro-3-(trifluoromethyl)phenyl)-2-(trifluoromethyl)imidazo[1,2-a]pyrazine] | 16,600 nM | 48 | 27 | 27.3 | 20 |  | ≤ 25 | 99.9915 | 92.1 |  |
| Fc1ccc(-c2cn3c(-c4ccc5[nH]ncc5c4F)c(C(F)(F)F)nc3cn2)cc1C(F)(F)C(F)(F)F [LSHTM-3645] | 11,700 nM | 10.7 | 9.7 | 9.7 | 3.5 |  |  | 100 | 96.9 |  |
| CC(C)c1cc(-c2cn3c(-c4ccc5[nH]ncc5c4F)c(C4CC4)nc3cn2)ccc1F [LSHTM-3686] | 15,800 nM | 4.1 | 5.4 | 5.4 | 1 |  |  | 99.997 | 76.1 |  |
